Results from patent US20230365566A1, “HETEROCYCLIC AMIDES AND THEIR USE FOR MODULATING SPLICING” (REMIX THERAPEUTICS INC., priority 2020, published 2023).
Where a name gives a salt, the structure may show the parent alone.

Assays:
Format in all cases: cell-based
[1] = test system: Target C CJ mRNA; experiment: Gene panel canonical junction qPCR assay, Target C; details: protocol of Example 42, read-out: Target C IC50 (decrease in CJ mRNA levels)
Protocol: (§1) Compounds described herein were used to modulate RNA transcript abundance in cells. The expression of a target mRNA was measured by detecting the formation of an exon-exon junction in the canonical transcript (CJ). A compound mediated exon-inclusion event was detected by observing an increase in formation of a new junction with an alternative exon (AJ). Real-time qPCR assays were used to detect these splicing switches and interrogate the potency of various compounds towards different target genes. A high-throughput real time quantitative PCR (RT-qPCR) assay was developed to measure these two isoforms of the mRNA (CJ and AJ) for an exemplary gene, HTT, together with a control housekeeping gene, GAPDH or GUSB or PPIA, used for normalization. Briefly, the A673 or K562 cell line was treated with various compounds described herein (e.g., compounds of Formula (I)). After treatment, the levels of the HTT mRNA targets were determined from each sample of cell lysate by cDNA synthesis followed by qPCR.
(§2) The A673 cell line was cultured in DMEM with 10% FBS. Cells were diluted with full growth media and plated in a 96-well plate (15,000 cells in 100 ul media per well). The plate was incubated at 37° C. with 5% CO2 for 24 hours to allow cells to adhere. An 11-point 3-fold serial dilution of the compounds was made in DMSO then diluted in media in an intermediate plate. Compounds were transferred from the intermediate plate to the cell plate with the top dose at a final concentration of 10 uM in the well. Final DMSO concentration was kept at or below 0.25%. The cell plate was returned to the incubator at 37° C. with 5% CO2 for an additional 24 hours.
(§3) The K562 cell line was cultured in IMDM with 10% FBS. For K562, cells were diluted with full growth media and plated in either a 96-well plate (50,000 cells in 50 uL media per well) or a 384-well plate (8,000-40,000 cells in 45 uL media per well). An 11-point 3-fold serial dilution of the compounds were made in DMSO then diluted in media in an intermediate plate. Compound was transferred from the intermediate plate to the cell plate with the top dose at a final concentration of 10 uM in the well. Final DMSO concentration was kept at or below 0.25%. Final volume was 100 uL for 96-well plate and 50 uL for 384-well plate. The cell plate was then placed in an incubator at 37° C. with 5% CO2 for 24 hours.
(§4) The data analysis was performed by first determining the ACt vs the housekeeper gene. This ACt was then normalized against the DMSO control (AACt) and converted to RQ (relative quantification) using the 2^(−ΔΔCt) equation. The RQ were then converted to a percentage response by arbitrarily setting an assay window of 3.5 ΔCt for HTT-CJ and an assay window of 9 ΔCt for HTT-AJ. […] The percentage response was then fitted to the 4 parametric logistic equation to evaluate the concentration dependence of compound treatment. The increase in AJ mRNA is reported as AC50 (compound concentration having 50% response in AJ increase) while the decrease in CJ mRNA levels is reported as IC50 (compound concentration having 50% response in CJ decrease).
(§5) Additional studies were carried out for a larger panel of genes using the protocol provided above. The junction between flanking upstream and downstream exons was used to design canonical junction qPCR assays. At least one of the forward primer, reverse primer or the CY5-labeled 5′ nuclease probe (with 3′ quencher such as ZEN/Iowa Black FQ) was designed to overlap with the exon junction to capture the CJ mRNA transcript. BLAST was used to confirm the specificity of the probeset and parameters such as melting temperature, GC content, amplicon size, and primer dimer formation are considered during their design. Data for the decrease in CJ mRNA levels for three exemplary genes (HTT, SMN2, and Target C) analyzed in this panel are reported as IC50 (compound concentration having 50% response in CJ decrease).

[2] = test system: HTT mRNA alternative junction (AJ); experiment: Splicing RT-qPCR assay, increase of HTT alternative junction (AJ) mRNA; details: A673 or K562 cells, 24 hours compound treatment, concentration having 50% response in AJ increase
Protocol: as §1, §2, §3
(§6) The cells were then gently washed with 50 uL-100 uL cold PBS before proceeding to addition of lysis buffer. 30 uL-50 uL of room temperature lysis buffer with DNAse I (and optionally RNAsin) was added to each well. Cells were shaken/mixed thoroughly at room temperature for 5-10 minutes for lysis to take place and then 3 uL-5 uL of room temperature stop solution was added and wells were shaken/mixed again. After 2-5 minutes, the cell lysate plate was transferred to ice for RT-qPCR reaction setup. The lysates could also be frozen at −80° C. for later use.
(§7) In some cases, a direct lysis buffer was used. An appropriate volume of 3× lysis buffer (10 mM Tris, 150 mM NaCl, 1.5%-2.5% Igepal and 0.1-1 U/uL RNAsin, pH 7.4) was directly added to either K562 or A673 cells in media and mixed by pipetting 3 times. The plates were then incubated at room temperature with shaking/rocking for 20-50 minutes to allow for lysis to take place. After this time, the cell lysate plate was transferred to ice to set up for the RT-qPCR reactions. The lysates could also be frozen at −80° C. for later use.
(§8) To set up 10 uL RT-qPCR reactions, cell lysates were transferred to 384-well qPCR plates containing the master mix according to the table below. The plates were sealed, gently vortexed, and spun down before the run. The volumes were adjusted accordingly in some instances where the reaction was carried in 20 uL. The table below summarizes the components of the RT-qPCR reactions:
(§9) The RT-qPCR reaction was performed using a QuantStudio (ThermoFisher) under the following fast cycling conditions. […]

[3] = test system: HTT mRNA canonical junction (CJ); experiment: Splicing RT-qPCR assay, decrease of HTT canonical junction (CJ) mRNA; details: A673 or K562 cells, 24 hours compound treatment, concentration having 50% response in CJ decrease
Protocol: as §1, §2, §3, §6, §7, §8, §9

[4] = test system: SMN2 CJ mRNA; experiment: Gene panel canonical junction qPCR assay, SMN2; details: protocol of Example 42, read-out: SMN2 IC50 (decrease in CJ mRNA levels)
Protocol: as §1, §2, §3, §4, §5

[5] = test system: HTT CJ mRNA; experiment: Gene panel canonical junction qPCR assay, HTT; details: protocol of Example 42, read-out: HTT IC50 (decrease in CJ mRNA levels)
Protocol: as §1, §2, §3, §4, §5

Row | SMILES | IC50 [1] | AC50 [2] | AC50 [3] | IC50 [4] | IC50 [5]
1 | Cc1cn2nc(NC(=O)c3ccc(N4CCNCC4)c4cc(C)oc34)nc2c(C)n1 [Compound 264] | > 10 µM | > 10 µM | > 10 µM | > 10 µM | > 10 µM
2 | Cc1cn2cc(NC(=O)c3ccc(N4CCC(NC(C)(C)C)C4)c4cn(C)nc34)cc(F)c2n1 (centres unmarked) [Compound 249] | > 10 µM | > 10 µM | > 10 µM | < 0.1 µM | > 10 µM
3 | Cc1cn2cc(NC(=O)c3ccc(N(C)C4CCN(C)CC4)c4cc(C)oc34)cc(F)c2n1 [Compound 200] | 1 to 10 µM | 1 to 10 µM | 1 to 10 µM | < 0.1 µM | 1 to 10 µM
4 | Cc1cn2cc(NC(=O)c3ccc(N4CCNCC4)c4cc(C)oc34)c(C)cc2n1 [Compound 262] | > 10 µM | > 10 µM | > 10 µM | < 0.1 µM | > 10 µM
5 | Cc1cn2cc(NC(=O)c3ccc(N4CCNCC4)c4cn(C)nc34)cc(F)c2n1 [Compound 143, N-[8-fluoro-2-methylimidazo[1,2-a]pyridin-6-yl]-2-methyl-4-(piperazin-1-yl) indazole-7-carboxamide] | < 0.1 µM | 0.1 to 1 µM | 0.1 to 1 µM | < 0.1 µM | 0.1 to 1 µM
6 | Cc1cn2cc(NC(=O)c3ccc(N4CC(C)(C)NC(C)(C)C4)c4cn(C)nc34)cc(F)c2n1 [Compound 274] | > 10 µM | > 10 µM | 1 to 10 µM | < 0.1 µM | 1 to 10 µM
7 | Cc1cn2cc(NC(=O)c3ccc(N4CCC(N(C)C)C4)c4cc(C)oc34)cc(F)c2n1 (centres unmarked) [Compound 202] | > 10 µM | 1 to 10 µM | > 10 µM | < 0.1 µM | > 10 µM
8 | Cc1cn2cc(NC(=O)c3ccc(N4CCN5CCCC5C4)c4cc(C)oc34)cc(F)c2n1 (centres unmarked) [Compound 199, N-[8-fluoro-2-methylimidazo[1,2-a]pyridin-6-yl]-4-[hexahydro-1H-pyrrolo[1,2-a]pyrazin-2-yl]-2-methyl-1-benzofuran-7-carboxamide] | 1 to 10 µM | 0.1 to 1 µM | 0.1 to 1 µM | < 0.1 µM | 0.1 to 1 µM
9 | Cc1cn2cc(NC(=O)c3ccc(N4CCNCC4)c4cc(C)oc34)cc(C)c2n1 [Compound 267] | > 10 µM | 1 to 10 µM | > 10 µM | < 0.1 µM | > 10 µM
10 | Cc1cn2cc(NC(=O)c3ccc(N4CCN(C)CC4)c4cc(C)oc34)cc(F)c2n1 [Compound 189, N-[8-fluoro-2-methylimidazo [1,2-a]pyridin-6-yl]-2-methyl-4-(4-methylpiperazin-1-yl)-1-benzofuran-7-carboxamide] | 1 to 10 µM | 1 to 10 µM | 1 to 10 µM | < 0.1 µM | 1 to 10 µM
11 | Cc1cn2cc(NC(=O)c3ccc(N4CCC(NC(C)(C)C)CC4)c4cn(C)nc34)cc(F)c2n1 [Compound 259] | 1 to 10 µM | 1 to 10 µM | 1 to 10 µM | < 0.1 µM | 1 to 10 µM
12 | Cc1cn2cc(NC(=O)c3ccc(N4CCNC5(CC5)C4)c4cc(C)oc34)cc(F)c2n1 [Compound 194] | > 10 µM | 1 to 10 µM | 1 to 10 µM | < 0.1 µM | 1 to 10 µM
13 | Cc1cn2cc(NC(=O)c3ccc(N4CCNCC4)c4cn(C)nc34)nc2c(C)n1 [Compound 273] | > 10 µM | > 10 µM | > 10 µM | < 0.1 µM | > 10 µM
14 | Cc1cn2cc(NC(=O)c3ccc(C4CCNCC4)c4cc(C)oc34)cc(F)c2n1 [Compound 145, N-[8-fluoro-2-methylimidazo[1,2-a]pyridin-6-yl]-2-methyl-4-(piperidin-4-yl)-1-benzofuran-7-carboxamide] | 0.1 to 1 µM | 1 to 10 µM | 1 to 10 µM | < 0.1 µM | 1 to 10 µM
15 | CCN1CCC(c2ccc(C(=O)Nc3cc(F)c4nc(C)cn4c3)c3oc(C)cc23)CC1 [Compound 257, 4-(1-ethylpiperidin-4-yl)-N-[8-fluoro-2-methylimidazo[1,2-a]pyridin-6-yl]-2-methyl-1-benzofuran-7-carboxamide] | > 10 µM | 1 to 10 µM | 1 to 10 µM | < 0.1 µM | 1 to 10 µM
16 | Cc1cn2cc(NC(=O)c3ccc(N4CCC(N(C)C)CC4)c4cc(C)oc34)cc(F)c2n1 [Compound 198, 4-[4-(dimethylamino)piperidin-1-yl]-N-[8-fluoro-2-methylimidazo[1,2-a]pyridin-6-yl]-2-methyl-1-benzofuran-7-carboxamide] | 1 to 10 µM | 1 to 10 µM | 0.1 to 1 µM | < 0.1 µM | 0.1 to 1 µM
17 | Cc1cn2cc(NC(=O)c3ccc(N4CCNCC4)c4oc(C)nc34)cc(F)c2n1 [Compound 141, N-[8-fluoro-2-methylimidazo[1,2-a]pyridin-6-yl]-2-methyl-7-(piperazin-1-yl)-1,3-benzoxazole-4-carboxamide hydrochloride] | 0.1 to 1 µM | < 0.1 µM | < 0.1 µM | < 0.1 µM | < 0.1 µM
18 | Cc1cn2cc(NC(=O)c3ccc(N4CC5(CNC5)C4)c4cc(C)oc34)cc(F)c2n1 [Compound 205] | 1 to 10 µM | 1 to 10 µM | 0.1 to 1 µM | < 0.1 µM | 0.1 to 1 µM
19 | Cc1cn2cc(NC(=O)c3ccc(N4C[C@H]5CC[C@@H](C4)N5)c4cn(C)nc34)cc(Cl)c2n1 [Compound 279, N-{8-chloro-2-methylimidazo[1,2-a]pyridin-6-yl}-4-[(1R,5S)-3,8-diazabicyclo[3.2.1]octan-3-yl]-2-methylindazole-7-carboxamide] | > 10 µM | 1 to 10 µM | 1 to 10 µM | < 0.1 µM | 1 to 10 µM
